# Tests used:
# [1] = system: LOLRI; experiment: Pre-emergence action at 320 g/ha against LOLRI; format: in vivo, Lolium rigidum; settings: visual scoring after about 3 weeks vs untreated controls
# Outline: (§1)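 WP/EC formulations applied pre-emergence to covering soil, water rate 600 l/ha, 0.5% additive. Greenhouse, ~3 weeks. Visual % damage vs untreated (0–100%).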
# [2] = system: AMARE; experiment: Post-emergence action against AMARE, 1.28 kg/ha; format: in vivo, Amaranthus retroflexus; settings: dosage 1280 g/ha, visual rating about 3 weeks after treatment vs untreated controls (100% = plants died)
# Outline: (§2)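 Foliar application at the one-leaf stage: compound as WP or EC in water with 0.5% additive, sprayed at 600 L/ha. Plants are kept about 3 weeks in the greenhouse, then % herbicidal action is estimated visually (100% = death).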
# [3] = system: POLCO; experiment: Post-emergence action at 320 g/ha against POLCO; format: in vivo, Fallopia convolvulus (Polygonum convolvulus); settings: visual rating about 3 weeks after treatment vs untreated controls
# Outline: (§3)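 Weeds were sown in sandy loam, grown in a greenhouse and sprayed at the one-leaf stage, 2 to 3 weeks after sowing, with WP or EC formulations as aqueous suspension or emulsion plus 0.5% additive at 600 l/ha water. Activity was rated visually after about 3 weeks against untreated controls (100% = plants dead, 0% = like control).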
# [4] = system: ECHCG; experiment: Post-emergence action against ECHCG, 1.28 kg/ha; format: in vivo, Echinochloa crus-galli; settings: dosage 1280 g/ha, visual rating about 3 weeks after treatment vs untreated controls
# Outline: as §2
# [5] = system: ALOMY; experiment: Post-emergence action against ALOMY, 320 g/ha; format: in vivo, Alopecurus myosuroides; settings: dosage 320 g/ha, visual rating about 3 weeks after treatment vs untreated controls (100% = plants died)
# Outline: as §3
# [6] = system: ABUTH; experiment: Post-emergence action against ABUTH, 1.28 kg/ha; format: in vivo, Abutilon theophrasti; settings: dosage 1280 g/ha, visual rating about 3 weeks after treatment vs untreated controls (100% = plants died)
# Outline: as §2
# [7] = system: PHBPU; experiment: Post-emergence action at 320 g/ha against PHBPU; format: in vivo; settings: visual rating about 3 weeks after treatment vs untreated controls
# Outline: as §3
# [8] = system: STEME; experiment: Post-emergence action against STEME, 1.28 kg/ha; format: in vivo, Stellaria media; settings: dosage 1280 g/ha, visual rating about 3 weeks after treatment vs untreated controls (100% = plants died)
# Outline: as §2
# [9] = system: DIGSA; experiment: Pre-emergence action against DIGSA, 1280 g/ha; format: in vivo, Digitaria sanguinalis; settings: visual scoring after about 3 weeks vs untreated controls, 100% = plants have died, 0% = like control plants
# Outline: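 Weed seeds sown in sandy loam in pots, covered with soil; compound as WP or EC applied to soil surface as aqueous suspension/emulsion with 0.5% additive at 600 L/ha water. Greenhouse, good growth conditions; visual % damage vs untreated controls after about 3 weeks (100% = plants dead, 0% = like control).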
# [10] = system: DIGSA; experiment: Post-emergence action at 320 g/ha against DIGSA; format: in vivo, Digitaria sanguinalis; settings: dosage 320 g/ha, visual rating about 3 weeks after treatment vs untreated controls (100% = plants died)
# Outline: as §3
# [11] = system: VERPE; experiment: Post-emergence action against VERPE, 1.28 kg/ha; format: in vivo, Veronica persica; settings: dosage 1280 g/ha, visual rating about 3 weeks after treatment vs untreated controls (100% = plants died)
# Outline: as §2
# [12] = system: MATIN; experiment: Post-emergence action against MATIN, 1.28 kg/ha; format: in vivo, Tripleurospermum inodorum (Matricaria inodora); settings: dosage 1280 g/ha, visual rating about 3 weeks after treatment vs untreated controls (100% = plants died)
# Outline: as §2
# [13] = system: SETVI; experiment: Post-emergence action at 320 g/ha against SETVI; format: in vivo, Setaria viridis; settings: visual rating about 3 weeks after treatment vs untreated controls
# Outline: as §3
# [14] = system: MATIN; experiment: Pre-emergence action at 320 g/ha against MATIN; format: in vivo, Tripleurospermum inodorum (Matricaria inodora); settings: visual scoring after about 3 weeks vs untreated controls
# Outline: as §1
# [15] = system: ALOMY; experiment: Post-emergence action against ALOMY, 1.28 kg/ha; format: in vivo, Alopecurus myosuroides; settings: dosage 1280 g/ha, visual rating about 3 weeks after treatment vs untreated controls
# Outline: as §2
# [16] = system: AMARE; experiment: Post-emergence action at 320 g/ha against AMARE; format: in vivo, Amaranthus retroflexus; settings: visual rating about 3 weeks after treatment vs untreated controls
# Outline: as §3
SMILES,Pre-emergence action against LOLRI in % [1] [%],Post-emergence action against AMARE [2] [%],Post-emergence action against POLCO in % [3] [%],Post-emergence action against ECHCG [4] [%],Post-emergence action against ALOMY [5] [%],Post-emergence action against ABUTH [6] [%],Post-emergence action against PHBPU in % [7] [%],Post-emergence action against STEME [8] [%],Pre-emergence action against DIGSA [9] [%],Post-emergence action at 320 g/ha against DIGSA in % [10] [%],Post-emergence action against VERPE [11] [%],Post-emergence action against MATIN [12] [%],Post-emergence action against SETVI in % [13] [%],Pre-emergence action against MATIN in % [14] [%],Post-emergence action against ALOMY [15] [%],Post-emergence action against AMARE in % [16] [%]
COC(=O)COc1nn(-c2ccccc2F)c(-c2cncc(F)c2)c1Br [VII-035],90,90,90,100,90,90,100,100,90,100,100,90,90,100,100,90
COC(=O)CCOC(=O)COc1nn(-c2ccccc2F)c(-c2ccc(F)nc2)c1Br [VII-111],100,90,90,100,100,90,80,100,100,90,90,100,90,90,100,90

# Reference: patent publication US12180187B2, “1-phenyl-5-azinylpyrazolyl-3-oxyalkyl acids and their use for controlling unwanted plant growth” (BAYER AKTIENGESELLSCHAFT, priority 2019, dated 2024)
